# Laboratory results published in US6495376B1, “Methods and compositions for regulating protein-protein interactions” (Beth Israel Deaconess Medical Center, priority 1999, dated 2002).
# “Also recorded” adds a separate entry of the source.
# Columns and labels:
# [1] = target: EQPLpTPVTDL (Cdc25 Peptide); assay: Fluorescence anisotropy binding to fluorescein-labeled phosphorylated Cdc25 peptide; conditions: GST-WW-domains
# WFYSPFLE = assay: Fluorescence anisotropy binding to fluorescein-labeled nonphosphorylated control peptide; conditions: for WFYSPFLE Kd: nonphosphorylated peptide
# [2] = test system: mitotically phosphorylated Cdc25C; assay: GST pull down of phosphorylated Cdc25C and CIP dephosphorylation; format: binding; conditions: for protection of bound Cdc25C from dephosphorylation by CIP: Cdc25C precipitated on GST beads, then CIP; for binding to Cdc25C (in words): mitotic versus interphase phosphorylated form
# Text: To confirm that Nedd4 WW-domains bind a specific phosphoprotein in a phosphorylation-dependent manner interactions between Nedd4 WW-domains and Cdc25C were examined. To various degrees, all three Nedd4 WW-domains bound the mitotically phosphorylated form, but not the interphase phosphorylated form of both HeLa Cdc25C and in vitro synthesized Xenopus Cdc25C. […] The Kd values for the phosphopeptides were also lower than those for the Pro-rich peptide that was thought to be a Nedd4 WW-domain-binding site (Table 1) (Chen, H. I., et al., Proc. Natl. Acad. Sci. USA 92:7819 (1995); Staub, O., et al., EMBO J. 15:2371 (1996); Bedford, M. J., et al., EMBO J., 16:2376 (1997)).
# Interactions between the WW-domain of Pin1 and specific phosphorylated ligands were examined. To detect phosphorylation-dependent interaction, Cdc25C, Plk1 and Pin1 ligands, were synthesized by in vitro transcription and translation in the presence of ^35S-Met and incubated with Xenopus interphase or mitotic extracts or mitotic extracts followed by treatment with calf intestine phosphatase (M+CIP). Protein complexes were separated on SDS-gels either directly (input) or first subjected to GST pull down with the N-terminal WW-domain (amino acids 1-54) or C-terminal PPIase domain (amino acids 47-163) or the entire Pin1 protein (Shen, M. et al., Genes & Dev 12:706 (1998)). The labeled protein-GST bead complexes were washed extensively and bound proteins analyzed by SDS-PAGE and autoradiography using standard techniques.
# To determine whether WW-domain binding protects dephosphorylation of its targets ^35S labeled (His)6 epitope tagged Cdc25C was phosphorylated by mitotic extracts and precipitated by GST fusion protein beads or Ni-NTA beads. The isolated Cdc25C was then incubated with control buffer or CIP, followed by separation on SDS-containing gels and autoradiography.
# [3] = test system: temperature-sensitive ptf1 yeast mutant (YPM2); assay: Rescue of temperature-sensitive ptf1 yeast mutant (in vivo function); format: cell-based; conditions: YPM2 cells, restrictive temperature
# Method: Given the essential role of the WW-domain in conferring Pin1-binding specificity in vitro, a critical question is whether this domain is important in vivo. To address this question, experiments using the PIN1 yeast homologue, ESS1/PTF1 were performed. ESS1/PTF1 is essential for cell growth and human Pin1 can carry out this essential function when transfected into yeast cells (Lu, K. P. et al., Nature 380:544 (1996); Hanes, S. D. et al., Yeast 5:55 (1989); Hani, J. et al., FEBS Lett. 365:198 (1995)). A temperature-sensitive ptf1 mutant strain, YPM2, grows at the permissive temperature (23° C.), but not at the restrictive temperature (30° C.) (Hanes, S. D. et al., Yeast 5:55 (1989); Hani, J. et al., FEBS Lett. 365:198 (1995)). This phenotype is completely rescued by a 1.5 kb PTF1 genomic fragment, which also contains the promoter and the 3′ processing sequence (FIG. 3). To insure that all human Pin1 proteins were expressed at physiological levels under normal regulation, the coding sequence of the fully functional ESS1/PTF1 gene in a Yepvector was replaced with the coding sequence of the human PIN1 (or Pin1 mutant) cDNA (FIG. 3) and transformed into a temperature-sensitive ptf1 strain. Transformants were selected on minimal media minus Leu at the permissive temperature (23° C.) and protein expression was detected by immunoblotting analysis using 12CA5 monoclonal antibody specific for the HA epitope tag inserted at the N-terminus. […] Those strains expressing similar levels of Pin1 and Pin1 mutants were grown at permissive and nonpermissive temperature.
# tau-promoted MT assembly = assay: Microtubule assembly light-scattering assay (turbidity at 350 nm); format: biochemical; conditions: 0.05 mg/ml protein, 0.05 mg/ml tau
# Sequence of tau-promoted MT assembly (P10636 45-219 isoform P10636-2 limits assumed): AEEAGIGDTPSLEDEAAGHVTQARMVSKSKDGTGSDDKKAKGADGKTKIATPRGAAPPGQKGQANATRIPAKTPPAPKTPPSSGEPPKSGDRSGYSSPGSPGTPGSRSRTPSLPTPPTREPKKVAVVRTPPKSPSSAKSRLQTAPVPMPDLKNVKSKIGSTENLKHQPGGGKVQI
# Method: The effect of Pin1 on the ability of phosphorylated tau to promote MT assembly was determined using light-scattering assays (Bramblett, G. T. et al., Neuron 10:1089-1099(1993); Alonso, A. C. et al., Proc Natl Acad Sci USA 91:5562-5566 (1994); Busciglio, J. et al., Neuron 14:879-888 (1995)). Briefly, MTs were assembled from phosphocellulose purified bovine tubulin (Cytoskeleton, Inc) and stabilized by Taxol. The nonphosphorylated or Cdc2 phosphorylated recombinant tau (0.1 mg/ml) was incubated with Pin1 (0.1 mg/ml) at 35° C. for 5 min before adding to the MTs. Bound tau was isolated by centrifugation (50,000×g) at 25° C. for 20 min, followed by immunoblotting analysis using CP27 and Pin1 antibodies. The ability of tau to promote MT assembly was determined using well established light-scattering assays. Briefly, the assembly of MTs was initiated by incubating tubulin (2 mg/ml) with or without tau (0.05 mg/ml) in 80 mM PIPES, pH 6.8, 1 mM EGTA, 1 mM MgCl2, 1 mM GTP, 20% glycerol at 35° C. for 2 min. The mixture was then transferred to a 100 μl cuvet and the rate of the MT assembly was monitored at room temperature using the turbidity increase at 350 nm. To examine the effect of Pin1, Pin1 or its mutant (0.05 mg/ml) was pre-incubated with tau or Cdc2 phosphorylated tau (0.05 mg/ml) at 35° C. for 5 min before the MT assembly assays.
# Cdc2 phosphorylated tau = assay: Binding of Cdc2 phosphorylated tau to Taxol-stabilized microtubules; format: biochemical; conditions: Pin1 0.1 mg/ml, tau 0.1 mg/ml
# Sequence of Cdc2 phosphorylated tau (P10636 45-219 isoform P10636-2 limits assumed): as above
# Text: The high affinity interaction between Pin 1 and phosphorylated tau can affect the biological activity of tau. Upon phosphorylation by many protein kinases, including Cdc2, tau loses its ability to bind microtubules (MTs) and promote MT assembly (Bramblett, G. T. et al., Neuron 10:1089-1099 (1993); Iqbal, K. et al., FEBS Lett 349:104-108 (1994); Yoshida, H. and Ihara, Y. J Neurochem 61:1183-1186 (1993); Alonso, A. C. et al., Proc Natl Acad Sci USA 91:5562-5566 (1994); Busciglio, J. et al., Neuron 14:879-888 (1995)) although the exact mechanism is not fully understood. To determine whether Pin1 can restore the ability of phosphorylated tau to bind MTs, phosphorylated tau was produced using purified Cdc2 (Vincent, I. et al., J Cell Biol 132:413-425 (1996); Vincent, I. et al., J Neurosci 17:3588-3598 (1997)) and assessed for its ability to bind Taxol-stabilized MTs in the presence or absence of Pin1. […] Pin1 was detected in the fraction of tau-bound MTs confirming interaction between Pin1 and phosphorylated tau.
# The effect of Pin1 on the ability of phosphorylated tau to promote MT assembly was determined using light-scattering assays (Bramblett, G. T. et al., Neuron 10:1089-1099(1993); Alonso, A. C. et al., Proc Natl Acad Sci USA 91:5562-5566 (1994); Busciglio, J. et al., Neuron 14:879-888 (1995)). […]
Substance,Kd [1] [µM],"Kd (μM) Pintide nonphosphorylated WFYSPFLE (WFYSPFLE; GST-WW-domains, N.B., not binding detected)",WFYSPFLE Kd (WFYSPFLE),protection of bound Cdc25C from dephosphorylation by CIP [2],binding to Cdc25C (in words) [2],complementation of temperature-sensitive ptf1 phenotype (in words) [3],effect on ability of Cdc2 phosphorylated tau to promote MT assembly (tau-promoted MT assembly),effect on ability of nonphosphorylated tau to promote MT assembly (tau-promoted MT assembly),restoration of binding of Cdc2 phosphorylated tau to MTs (Cdc2 phosphorylated tau)
Pin1 WW-domain: N-terminal WW-domain (amino acids 1-54) of Pin1 (MADEEKLPPGWEKRMSRSSGRVYYFNHITNASQWERPSGNSSSGGKNGQGEPAR; left off: a dimerising Fc or GST),2.2,N.B.,No binding was detected; also recorded: Not binding,CIP failed to dephosphorylate Cdc25C,"bound the phosphorylated Cdc25C in mitotic cell extracts, but not interphase extracts",,,,
Pin1: wild-type human prolyl isomerase (PPIase) Pin1 with N-terminal WW-domain; tag cleaved in Table 2,,,No binding was detected; also recorded: Not binding,CIP failed to dephosphorylate Cdc25C,"bound the phosphorylated Cdc25C in mitotic cell extracts, but not interphase extracts",fully complemented the temperature-sensitive phenotype,restored the ability of Cdc2 phosphorylated tau to promote MT assembly,no effect,binding was restored
